Legend:
Assay in all cases: Kinase panel profiling at 1 µmol/L (MSA or IMAP), percentage inhibition
Assay type in all cases: biochemical
[1] = biological target: panel of 255 wild-type kinases (Homo sapiens, UniProt Q9Y5S2); conditions: MRCKβ; 1 µmol/L single concentration; read-out: %-inhibition, MRCKβ
[2] = biological target: T1, panel of 255 wild-type kinases (Homo sapiens, UniProt O43781); conditions: kinase DYRK3; 1 µmol/L single concentration; read-out: %-inhibition at 1 µmol/L, DYRK3
T1 sequence (O43781 1-588): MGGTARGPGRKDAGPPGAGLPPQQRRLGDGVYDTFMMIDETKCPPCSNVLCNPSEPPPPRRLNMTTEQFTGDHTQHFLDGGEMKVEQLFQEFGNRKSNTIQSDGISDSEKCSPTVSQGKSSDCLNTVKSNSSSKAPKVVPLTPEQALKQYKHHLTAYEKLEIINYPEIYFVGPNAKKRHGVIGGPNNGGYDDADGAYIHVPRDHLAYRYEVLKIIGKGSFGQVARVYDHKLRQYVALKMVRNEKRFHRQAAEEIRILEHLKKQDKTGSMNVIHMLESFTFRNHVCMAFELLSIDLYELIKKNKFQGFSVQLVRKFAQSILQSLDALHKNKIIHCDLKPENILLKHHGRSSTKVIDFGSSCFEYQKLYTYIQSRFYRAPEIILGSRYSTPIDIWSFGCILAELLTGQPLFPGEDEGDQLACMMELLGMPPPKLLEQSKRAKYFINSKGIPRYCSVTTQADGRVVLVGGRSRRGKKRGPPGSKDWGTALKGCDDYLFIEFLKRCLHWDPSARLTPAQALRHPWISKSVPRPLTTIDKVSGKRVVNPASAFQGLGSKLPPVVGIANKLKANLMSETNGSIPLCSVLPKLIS

[3] = biological target: panel of 255 wild-type kinases (Homo sapiens, UniProt P78362); conditions: kinase SRPK2; 1 µmol/L single concentration; read-out: %-inhibition at 1 µmol/L, SRPK2
[4] = biological target: panel of 255 wild-type kinases (Homo sapiens, UniProt P07332); conditions: kinase FES; 1 µmol/L single concentration; read-out: %-inhibition at 1 µmol/L, FES
[5] = biological target: T2, panel of 255 wild-type kinases (Homo sapiens, UniProt Q05513); conditions: kinase PKCζ; 1 µmol/L single concentration; read-out: %-inhibition at 1 µmol/L, PKCζ
T2 sequence (Q05513 1-592): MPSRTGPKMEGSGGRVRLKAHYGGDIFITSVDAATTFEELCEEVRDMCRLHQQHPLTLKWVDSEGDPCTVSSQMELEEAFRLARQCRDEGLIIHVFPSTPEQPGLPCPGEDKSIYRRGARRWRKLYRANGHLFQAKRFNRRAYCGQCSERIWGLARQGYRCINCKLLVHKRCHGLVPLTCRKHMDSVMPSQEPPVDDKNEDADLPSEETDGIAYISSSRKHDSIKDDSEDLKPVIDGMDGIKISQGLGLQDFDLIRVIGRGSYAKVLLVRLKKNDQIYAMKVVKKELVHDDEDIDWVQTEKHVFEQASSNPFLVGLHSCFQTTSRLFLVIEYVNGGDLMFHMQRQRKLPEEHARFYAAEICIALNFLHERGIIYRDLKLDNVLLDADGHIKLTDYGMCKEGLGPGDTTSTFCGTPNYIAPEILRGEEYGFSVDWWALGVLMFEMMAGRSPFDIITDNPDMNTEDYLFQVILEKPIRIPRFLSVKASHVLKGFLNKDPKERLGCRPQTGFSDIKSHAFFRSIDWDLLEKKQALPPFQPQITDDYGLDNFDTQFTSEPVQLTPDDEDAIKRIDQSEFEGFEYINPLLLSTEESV

[6] = biological target: T3, panel of 255 wild-type kinases (Homo sapiens, UniProt P41743); conditions: kinase PKCι; 1 µmol/L single concentration; read-out: %-inhibition at 1 µmol/L, PKCι
T3 sequence (P41743 1-596): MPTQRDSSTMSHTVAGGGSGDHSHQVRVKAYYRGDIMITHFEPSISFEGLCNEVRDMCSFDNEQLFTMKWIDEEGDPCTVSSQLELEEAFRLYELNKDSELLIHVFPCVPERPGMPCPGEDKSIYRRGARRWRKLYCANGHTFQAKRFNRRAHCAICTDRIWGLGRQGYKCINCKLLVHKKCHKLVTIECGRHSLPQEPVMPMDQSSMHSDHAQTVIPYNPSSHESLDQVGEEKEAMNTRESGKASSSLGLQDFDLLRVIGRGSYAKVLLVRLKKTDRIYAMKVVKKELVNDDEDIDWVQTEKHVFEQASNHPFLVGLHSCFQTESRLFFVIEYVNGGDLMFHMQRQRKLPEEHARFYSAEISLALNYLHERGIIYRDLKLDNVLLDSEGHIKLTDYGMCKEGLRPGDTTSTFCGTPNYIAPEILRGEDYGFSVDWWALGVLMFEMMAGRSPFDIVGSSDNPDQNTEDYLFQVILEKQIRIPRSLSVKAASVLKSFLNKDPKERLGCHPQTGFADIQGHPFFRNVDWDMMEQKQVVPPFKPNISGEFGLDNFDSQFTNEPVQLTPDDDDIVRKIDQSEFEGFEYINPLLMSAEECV

[7] = biological target: T4, panel of 255 wild-type kinases (Homo sapiens, UniProt Q96KB5); conditions: kinase PBK; 1 µmol/L single concentration; read-out: %-inhibition at 1 µmol/L, PBK
T4 sequence (Q96KB5 1-322): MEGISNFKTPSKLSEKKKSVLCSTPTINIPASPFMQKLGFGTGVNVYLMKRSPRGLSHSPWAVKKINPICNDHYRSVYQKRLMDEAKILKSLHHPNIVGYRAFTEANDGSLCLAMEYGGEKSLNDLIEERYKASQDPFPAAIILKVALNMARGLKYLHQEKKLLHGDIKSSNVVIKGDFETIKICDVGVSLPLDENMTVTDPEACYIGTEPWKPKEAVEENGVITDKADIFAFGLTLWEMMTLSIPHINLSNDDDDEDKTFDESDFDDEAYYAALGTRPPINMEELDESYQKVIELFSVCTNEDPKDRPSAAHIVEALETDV

Structure (SMILES) | inhibition at 1 µM [1] | inhibition at 1 µM [2] | inhibition at 1 µM [3] | inhibition at 1 µM [4] | inhibition at 1 µM [5] | inhibition at 1 µM [6] | inhibition at 1 µM [7]
Cc1cc(Nc2ncnc3ccc(NC4=NC(C)(C)CO4)cc23)ccc1Oc1ccn2ncnc2c1 [tucatinib] | 2% | 1.07% | -0.581% | 1.74% | -1.11% | -2.24% | 1.21%
C=CC(=O)N1CCC([C@@H]2CCNc3c(C(N)=O)c(-c4ccc(Oc5ccccc5)cc4)nn32)CC1 [zanubrutinib] | -1.23% | -6% | -2.35% | 1.42% | 0.367% | -8% | -4%

— PMC9516332 (Frontiers in Oncology, 2022)
